Assay results: article PMC6364417, “Kinase inhibitor library screening identifies synergistic drug combinations effective in sensitive and resistant melanoma cells” (Journal of Experimental & Clinical Cancer Research : CR, 2019)
Structures can show the parent of a compound that is named as a salt.

Key:
Test in all cases: Kinase inhibitor library screening, PrestoBlue cell viability, 1 or 10 μM, 72 h
[1] = test system: 501Mel-XP cells (Vemurafenib-resistant); conditions: 501Mel XP, 72 h; for Cell viability in kinase inhibitor library screening, 501Mel XP, 1μΜ / Cell viability in kinase inhibitor library screening, 501Mel XP, 10μΜ: in %
[2] = test system: 501Mel-GP cells (Dabrafenib-resistant); conditions: 501Mel GP, 72 h; for Cell viability in kinase inhibitor library screening, 501Mel GP, 1μΜ / Cell viability in kinase inhibitor library screening, 501Mel GP, 10μΜ: in %
[3] = test system: A375-GP cells (Dabrafenib-resistant); conditions: A375 GP, 72 h
[4] = test system: IGR37-GP cells (Dabrafenib-resistant); conditions: IGR37 GP, 72 h; for Cell viability in kinase inhibitor library screening, IGR37 GP, 1μΜ: in %
[5] = test system: IGR37-XP cells (Vemurafenib-resistant); conditions: IGR37 XP, 72 h; for Cell viability in kinase inhibitor library screening, IGR37 XP, 1μΜ: in %
[6] = test system: A375-XP cells (Vemurafenib-resistant); conditions: A375 XP, 72 h
A375 cells (parental) = conditions: A375 Parental, 72 h
IGR37 cells (parental) = conditions: IGR37 Parental, 72 h; for Cell viability in kinase inhibitor library screening, IGR37 Parental, 1μΜ / Cell viability in kinase inhibitor library screening, IGR37 Parental, 10μΜ: in %
501Mel cells (parental) = conditions: 501Mel Parental, 72 h; for Cell viability in kinase inhibitor library screening, 501Mel Parental, 10μΜ / Cell viability in kinase inhibitor library screening, 501Mel Parental, 1μΜ: in %
Outline: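 Two concentrations of every kinase inhibitor were tested on each melanoma line and its resistant counterparts, and cell survival was quantified by PrestoBlue against untreated wells.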

Row | Structure (SMILES) | cell viability (kinase inhibitor library screening) ([1]; 1μΜ) | cell viability (kinase inhibitor library screening) ([1]; 10μΜ) | cell viability (kinase inhibitor library screening) ([2]; 1μΜ) | cell viability (kinase inhibitor library screening) ([2]; 10μΜ) | Cell viability in kinase inhibitor library screening, 501Mel XP, 1μΜ ([1]; 1μΜ) | Cell viability in kinase inhibitor library screening, 501Mel XP, 10μΜ ([1]; 10μΜ) | Cell viability in kinase inhibitor library screening, 501Mel GP, 1μΜ ([2]; 1μΜ) | Cell viability in kinase inhibitor library screening, 501Mel GP, 10μΜ ([2]; 10μΜ) | Cell viability in kinase inhibitor library screening, A375 GP, 1μΜ ([3]; 1μΜ) | Cell viability in kinase inhibitor library screening, A375 GP, 10μΜ ([3]; 10μΜ) | Cell viability in kinase inhibitor library screening, IGR37 GP, 10μΜ ([4]; 10μΜ) | Cell viability in kinase inhibitor library screening, IGR37 XP, 10μΜ ([5]; 10μΜ) | Cell viability in kinase inhibitor library screening, IGR37 XP, 1μΜ ([5]; 1μΜ) | Cell viability in kinase inhibitor library screening, A375 XP, 1μΜ ([6]; 1μΜ) | Cell viability in kinase inhibitor library screening, A375 XP, 10μΜ ([6]; 10μΜ) | Cell viability in kinase inhibitor library screening, A375 Parental, 10μΜ (A375 cells (parental); 10μΜ) | Cell viability in kinase inhibitor library screening, A375 Parental, 1μΜ (A375 cells (parental); 1μΜ) | Cell viability in kinase inhibitor library screening, IGR37 Parental, 1μΜ (IGR37 cells (parental); 1μΜ) | Cell viability in kinase inhibitor library screening, IGR37 Parental, 10μΜ (IGR37 cells (parental); 10μΜ) | Cell viability in kinase inhibitor library screening, 501Mel Parental, 10μΜ (501Mel cells (parental); 10μΜ) | further results
1 | CN1CC[C@H](c2c(O)cc(O)c3c(=O)cc(-c4ccccc4Cl)oc23)[C@H](O)C1 [Flavopiridol hydrochloride] | 0.473% | 0.3% | 0.662% | 0.4% |  |  |  |  |  |  |  |  |  |  |  |  |  |  |  |  | cell viability (kinase inhibitor library screening) ([3]; 1μΜ): 4.6%; cell viability (kinase inhibitor library screening) ([3]; 10μΜ): 3.0%; cell viability (kinase inhibitor library screening) ([4]; 1μΜ): 4.5%; cell viability (kinase inhibitor library screening) ([4]; 10μΜ): 3.8%; cell viability (kinase inhibitor library screening) ([5]; 1μΜ): 2.9%; cell viability (kinase inhibitor library screening) ([5]; 10μΜ): 3.2%; cell viability (kinase inhibitor library screening) ([6]; 1μΜ): 5.6%; cell viability (kinase inhibitor library screening) ([6]; 10μΜ): 5.1%; cell viability (kinase inhibitor library screening) (A375 cells (parental); 10μΜ): 7.2%; cell viability (kinase inhibitor library screening) (A375 cells (parental); 1μΜ): 7.0%; cell viability (kinase inhibitor library screening) (IGR37 cells (parental); 1μΜ): 2.2%; cell viability (kinase inhibitor library screening) (IGR37 cells (parental); 10μΜ): 2.2%; cell viability (kinase inhibitor library screening) (501Mel cells (parental); 1μΜ): 1.1%; cell viability (kinase inhibitor library screening) (501Mel cells (parental); 10μΜ): 1.3%
2 | O=c1cc(N2CCOCC2)oc2c(-c3ccccc3)cccc12 [LY294002] |  |  |  |  | 91.4 | 68.2 | 104.8 | 77.9 | 104.5 | 79.2 | 72.8% | 46.1% | 100.0 | 104.6 | 90.9 | 80.4 | 105.7 | 106.7 | 84.5 | 86.8 | Cell viability in kinase inhibitor library screening, IGR37 GP, 1μΜ ([4]; 1μΜ): 100.0
3 | CO[C@H]1C[C@@H]2CC[C@@H](C)[C@@](O)(O2)C(=O)C(=O)N2CCCC[C@H]2C(=O)O[C@H]([C@H](C)C[C@@H]2CC[C@@H](OP(C)(C)=O)[C@H](OC)C2)CC(=O)[C@H](C)/C=C(\C)[C@@H](O)[C@@H](OC)C(=O)[C@H](C)C[C@H](C)/C=C/C=C/C=C/1C [Deforolimus (Ridaforolimus)] |  |  |  |  | 54.3 | 40.7 | 66.5 | 55.6 | 79.3 | 72.3 | 76.8% | 56.1% | 95.0 | 79.9 | 76.9 | 73.5 | 82.1 | 82.2 | 86.0 | 82.7 | Cell viability in kinase inhibitor library screening, IGR37 GP, 1μΜ ([4]; 1μΜ): 90.2; Cell viability in kinase inhibitor library screening, 501Mel Parental, 1μΜ (501Mel cells (parental); 1μΜ): 84.8
4 | COc1cc2c(Oc3ccc(NC(=O)C4(C(=O)Nc5ccc(F)cc5)CC4)cc3F)ccnc2cc1OCCCN1CCOCC1 [Foretinib (GSK1363089, XL880)] | 47.0% | -0.9% | 64.6% | -0.6% |  |  |  |  |  |  |  |  |  |  |  |  |  |  |  |  | cell viability (kinase inhibitor library screening) ([3]; 1μΜ): 67.2%; cell viability (kinase inhibitor library screening) ([3]; 10μΜ): 0.464%; cell viability (kinase inhibitor library screening) ([4]; 1μΜ): 91.3%; cell viability (kinase inhibitor library screening) ([4]; 10μΜ): 0.8%; cell viability (kinase inhibitor library screening) ([5]; 1μΜ): 81.8%; cell viability (kinase inhibitor library screening) ([5]; 10μΜ): 0.556%; cell viability (kinase inhibitor library screening) ([6]; 1μΜ): 75.2%; cell viability (kinase inhibitor library screening) ([6]; 10μΜ): 0.7%; cell viability (kinase inhibitor library screening) (A375 cells (parental); 10μΜ): 0.654%; cell viability (kinase inhibitor library screening) (A375 cells (parental); 1μΜ): 71.0%; cell viability (kinase inhibitor library screening) (IGR37 cells (parental); 1μΜ): 85.9%; cell viability (kinase inhibitor library screening) (IGR37 cells (parental); 10μΜ): 0.2%; cell viability (kinase inhibitor library screening) (501Mel cells (parental); 1μΜ): 84.1%; cell viability (kinase inhibitor library screening) (501Mel cells (parental); 10μΜ): 0.153%
5 | O=C1NC(=O)/C(=C/c2ccc(-c3ccc(F)cc3O)o2)S1 [AS-252424] |  |  |  |  | 109.3 | 84.7 | 105.9 | 85.7 | 107.9 | 90.3 | 75.1% | 42.3% | 93.7 | 115.1 | 96.7 | 82.9 | 107.2 | 103.0 | 94.5 | 97.9 | Cell viability in kinase inhibitor library screening, 501Mel Parental, 1μΜ (501Mel cells (parental); 1μΜ): 112.3
